According to US11279687B2, “Compounds and compositions for the inhibition of NAMPT” (Valo Health, Inc., priority 2010, dated 2022):
Read-outs that look alike come from different tables or passages of the source.

Legend:
NAMPT = NAMPT (Homo sapiens (Human), UniProt P43490); test: NAMPT biochemical inhibition assay (NMN quantified by mass spectrometry); settings: NAMPT biochemical inhibition; read-out: Biochem IC50
A2780 cells = test: In-vitro cell proliferation assay (SRB), A2780 cells; format: cell-based; settings: A2780 cells, 72 hours, SRB, read-out: A2780 IC50;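 also: viable cell number read as SRB absorbance, background from media-only wells subtracted, IC50 interpolated from percent inhibition at two bracketing compound concentrations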

Chain of NAMPT (P43490 whole entry): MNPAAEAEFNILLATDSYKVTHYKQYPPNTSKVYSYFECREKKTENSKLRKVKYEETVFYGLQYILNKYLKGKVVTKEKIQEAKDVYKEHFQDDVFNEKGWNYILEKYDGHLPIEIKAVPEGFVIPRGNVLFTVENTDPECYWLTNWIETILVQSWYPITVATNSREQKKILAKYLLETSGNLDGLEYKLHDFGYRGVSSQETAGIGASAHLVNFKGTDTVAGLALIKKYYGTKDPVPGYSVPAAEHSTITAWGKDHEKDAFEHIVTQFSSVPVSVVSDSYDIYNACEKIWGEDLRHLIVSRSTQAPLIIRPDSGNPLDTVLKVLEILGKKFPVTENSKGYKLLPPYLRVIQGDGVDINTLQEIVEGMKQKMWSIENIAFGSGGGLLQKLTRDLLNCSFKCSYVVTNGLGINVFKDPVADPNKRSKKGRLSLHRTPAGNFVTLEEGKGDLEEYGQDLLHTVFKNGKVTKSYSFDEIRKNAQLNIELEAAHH

| SMILES | IC50 (NAMPT) | IC50 (A2780 cells; Homo sapiens, A2780, 72 h) | IC50 (A2780 cells) |
| --- | --- | --- | --- |
| O=C(NCc1ccc2nccn2c1)c1ccc(S(=O)(=O)c2cccc(OC(F)(F)F)c2)cc1 [N-{imidazo[1,2-a]pyridin-6-ylmethyl}-4-{[3-(trifluoromethoxy)benzene]sulfonyl}benzamide] | 139 nM | 1.8 nM |  |
| CCNS(=O)(=O)c1cccc(S(=O)(=O)c2ccc(NC(=O)NCc3cccnc3)cc2)c1 [3-(4-{[3-(ethylsulfamoyl)benzene]sulfonyl}phenyl)-1-(pyridin-3-ylmethyl)urea] | 7.2 nM | 100 to 1000 nM |  |
| Cc1nnc(-c2cccc(S(=O)(=O)c3ccc(NC(=O)NCc4cccnc4)cc3)c2)o1 [3-(4-{[3-(5-methyl-1,3,4-oxadiazol-2-yl)benzene]sulfonyl]phenyl)-1-(pyridin-3-ylmethyl)urea] | 7.3 nM |  | 100 to 1000 nM |
| Nc1ccc(CNC(=O)Nc2ccc(S(=O)(=O)c3ccc(F)cc3)cc2)cn1 [1-[(6-aminopyridin-3-yl)methyl]-3-{4-[(4-fluorobenzene)sulfonyl]phenyl}urea] | 2 nM | 43 nM |  |
| O=C(NCc1cccnc1)Nc1ccc(S(=O)(=O)N2CC[C@H]3CCCC[C@@H]3C2)cc1 (relative stereo) [rel-3-{4-[(4aR,8aS)-decahydroisoquinoline-2-sulfonyl]phenyl}-1-(pyridin-3-ylmethyl)urea] | 2 nM | 101 nM |  |
| O=C(NCc1cccnc1)Nc1ccc(S(=O)(=O)Nc2ccc(Cl)c3ccccc23)cc1 [3-{4-[(4-chloronaphthalen-1-yl)sulfamoyl]phenyl}-1-(pyridin-3-ylmethyl)urea] | 5 nM | 53 nM |  |
| CCCN(CCC)C1CCN(S(=O)(=O)c2ccc(NC(=O)NCc3cccnc3)cc2)CC1 [3-{4-[4-(dipropylamino)piperidine-1-sulfonyl]phenyl}-1-(pyridin-3-ylmethyl)urea] | 4 nM | 3 nM |  |
| COc1ccc(CNS(=O)(=O)c2ccc(NC(=O)NCc3cccnc3)cc2)cc1 [3-(4-{[(4-methoxyphenyl)methyl]sulfamoyl}phenyl)-1-(pyridin-3-ylmethyl)urea] | 16 nM | 507 nM |  |
| C[C@@H](c1ccccc1)N(C)S(=O)(=O)c1ccc(NC(=O)NCc2cccnc2)cc1 [3-(4-{methyl[(1S)-1-phenylethyl]sulfamoyl}phenyl)-1-(pyridin-3-ylmethyl)urea] | 1 nM | 8 nM |  |
| CCN(CC)C1CCN(S(=O)(=O)c2ccc(NC(=O)NCc3cccnc3)cc2)CC1 [3-{4-[4-(diethylamino)piperidine-1-sulfonyl]phenyl}-1-(pyridin-3-ylmethyl)urea] | 5 nM | 14 nM |  |
| CCS(=O)(=O)Nc1cccc(S(=O)(=O)c2ccc(NC(=O)NCc3cccnc3)cc2)c1 [3-{4-[(3-ethanesulfonamidobenzene)sulfonyl]phenyl}-1-(pyridin-3-ylmethyl)urea] | 1.1 nM | 69.5 nM |  |
| CCN(Cc1ccccc1)S(=O)(=O)c1ccc(NC(=O)NCc2cccnc2)cc1 [3-{4-[benzyl(ethyl)sulfamoyl]phenyl}-1-(pyridin-3-ylmethyl)urea] | 0.9 nM | 7 nM |  |
| O=C(NCc1cccnc1)Nc1ccc(S(=O)(=O)N2CCCC[C@@H]2Cc2ccccc2)cc1 [1-{4-[(2R)-2-benzylpiperidine-1-sulfonyl]phenyl}-3-(pyridin-3-ylmethyl)urea] | 4 nM | 24 nM |  |
| O=C(NCc1cccnc1)Nc1ccc(S(=O)(=O)Nc2ccccc2OC(F)(F)F)cc1 [1-(pyridin-3-ylmethyl)-3-(4-{[2-(trifluoromethoxy)phenyl]sulfamoyl}phenyl)urea] | 1.2 nM | 7 nM |  |
| O=C(NCc1cccnc1)Nc1ccc(S(=O)(=O)C(F)(F)F)cc1 [1-(pyridin-3-ylmethyl)-3-[4-(trifluoromethane)sulfonylphenyl]urea] | 226 nM | 10000 nM |  |
| O=C(NCc1cccnc1)Nc1ccc(S(=O)(=O)Nc2cccc(C(=O)c3ccccc3)c2)cc1 [1-{4-[(3-benzoylphenyl)sulfamoyl]phenyl}-3-(pyridin-3-ylmethyl)urea] | 4.4 nM | 1000 to 10000 nM |  |
| O=C(NCc1cccnc1)Nc1ccc(S(=O)(=O)N2CCc3ccccc32)cc1 [3-[4-(2,3-dihydro-1H-indole-1-sulfonyl)phenyl]-1-(pyridin-3-ylmethyl)urea] | 2 nM | 31 nM |  |
| O=C(NCc1cccnc1)Nc1ccc(S(=O)(=O)N2CCN(c3ccccc3)CC2)cc1 [1-[4-(4-phenylpiperazine-1-sulfonyl)phenyl]-3-(pyridin-3-ylmethyl)urea] | 5 nM |  |  |
| CN(Cc1cccc(C(F)(F)F)c1)S(=O)(=O)c1ccc(NC(=O)NCc2cccnc2)cc1 [3-{4-[methyl({[3-(trifluoromethyl)phenyl]methyl})sulfamoyl]phenyl}-1-(pyridin-3-ylmethyl)urea] | 7 nM |  |  |
| O=C(NCc1cccnc1)Nc1ccc(S(=O)(=O)Nc2cccc(C(F)(F)F)c2)cc1 [1-(pyridin-3-ylmethyl)-3-(4-{[3-(trifluoromethyl)phenyl]sulfamoyl}phenyl)urea] | 6 nM |  |  |

The next lines start with results.

| IC50 (NAMPT) | IC50 (A2780 cells; Homo sapiens, A2780, 72 h) | SMILES | IC50 (A2780 cells) |
| --- | --- | --- | --- |
| 1 nM | 387 nM | COc1cccc(S(=O)(=O)c2ccc(NC(=O)NCc3cccnc3)cc2)c1F [3-{4-[(2-fluoro-3-methoxybenzene)sulfonyl]phenyl}-1-(pyridin-3-ylmethyl)urea] |  |
| 7 nM | 336 nM | Cc1ccc(F)c(S(=O)(=O)c2ccc(NC(=O)NCc3cccnc3)cc2)c1Cl [3-{4-[(2-chloro-6-fluoro-3-methylbenzene)sulfonyl]phenyl}-1-(pyridin-3-ylmethyl)urea] |  |
| 3 nM | 239 nM | O=C(NCc1cccnc1)Nc1ccc(S(=O)(=O)c2ccc(Br)cc2)cc1 [3-{4-[(4-bromobenzene)sulfonyl]phenyl}-1-(pyridin-3-ylmethyl)urea] |  |
| 2 nM | 157 nM | Cc1ccc(NS(=O)(=O)c2ccc(NC(=O)NCc3cccnc3)cc2)c(F)c1 [3-{4-[(2-fluoro-4-methylphenyl)sulfamoyl]phenyl}-1-(pyridin-3-ylmethyl)urea] |  |
| 5.5 nM | 100 to 1000 nM | O=C(NCc1cccnc1)Nc1ccc(S(=O)(=O)c2ccc(OC(F)(F)F)c(F)c2)cc1 [3-(4-{[3-fluoro-4-(trifluoromethoxy)benzene]sulfonyl}phenyl)-1-(pyridin-3-ylmethyl)urea] |  |
| 2.8 nM | 28 nM | O=C(NCc1cccnc1)Nc1ccc(S(=O)(=O)c2cnc3ccccc3c2)cc1 [3-(pyridin-3-ylmethyl)-1-[4-(quinoline-3-sulfonyl)phenyl]urea] |  |
| 1.8 nM | 67.1 nM | Cc1cc(Cl)cc(S(=O)(=O)c2ccc(NC(=O)NCc3cccnc3)cc2)c1 [3-{4-[(3-chloro-5-methylbenzene)sulfonyl]phenyl}-1-(pyridin-3-ylmethyl)urea] |  |
| 5 nM | 47 nM | COc1ccc(S(=O)(=O)c2ccc(NC(=O)NCc3cccnc3)cc2)c(OC)c1 [3-{4-[(2,4-dimethoxybenzene)sulfonyl]phenyl}-1-(pyridin-3-ylmethyl)urea] |  |
| 8 nM |  | O=C(NCc1cccnc1)Nc1ccc(S(=O)(=O)c2ccc(F)cc2Cl)cc1 [3-{4-[(2-chloro-4-fluorobenzene)sulfonyl]phenyl}-1-(pyridin-3-ylmethyl)urea] |  |
| 3 nM |  | CN(Cc1ccc(F)cc1)S(=O)(=O)c1ccc(NC(=O)NCc2cccnc2)cc1 [3-(4-{[(4-fluorophenyl)methyl](methyl)sulfamoyl}phenyl)-1-(pyridin-3-ylmethyl)urea] |  |
